Test results as given in article PMC11099041, “Tissue distribution and retention drives efficacy of rapidly clearing VHL-based PROTACs” (Communications Medicine, 2024).

Columns and labels:
CYP1A2 = biological target: T1, CYP1A2 (Homo sapiens, UniProt P05177); assay: Reversible P450 inhibition in HLM; format: biochemical; details: human liver microsomes, pH 7.4, probe tacrine, substrate Tacrine
T1 construct: phosphate buffer (100 mM, pH 7.4) containing human liver microsomes (HLM); from tissue; host or cells: human liver microsomes
T1 sequence (P05177 1-516): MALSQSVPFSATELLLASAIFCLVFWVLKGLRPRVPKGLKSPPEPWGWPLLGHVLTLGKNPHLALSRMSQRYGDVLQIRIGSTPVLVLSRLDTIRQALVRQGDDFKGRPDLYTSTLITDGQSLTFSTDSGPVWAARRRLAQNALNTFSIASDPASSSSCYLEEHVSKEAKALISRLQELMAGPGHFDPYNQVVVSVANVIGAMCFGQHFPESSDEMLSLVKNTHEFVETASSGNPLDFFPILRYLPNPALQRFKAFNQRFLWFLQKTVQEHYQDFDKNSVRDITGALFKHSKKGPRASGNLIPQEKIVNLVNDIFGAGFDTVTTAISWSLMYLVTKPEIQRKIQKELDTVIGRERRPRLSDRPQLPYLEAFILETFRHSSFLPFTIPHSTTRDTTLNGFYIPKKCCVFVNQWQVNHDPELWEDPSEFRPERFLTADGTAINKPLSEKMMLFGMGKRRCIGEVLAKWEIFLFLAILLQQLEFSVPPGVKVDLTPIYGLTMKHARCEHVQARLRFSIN
Experimental: (§1) The reversible P450 inhibition assay was conducted in triplicate on a BioCel 1200 System, V11 (Agilent, CA), as previously described by Kosaka, et al.[28] […] Individual P450 specific substrates included midazolam for CYP3A4/5, dextromethorphan for CYP2D6, S-(+)-mephenytoin for CYP2C19, S-(-)-warfarin for CYP2C9, paclitaxel for CYP2C8, and tacrine for CYP1A2. P450 activity was expressed as the peak area ratio of a P450-specific metabolite formed relative to its internal standard, and inhibition percentage was calculated from P450 activity of samples relative to the solvent control. Inhibition data were processed using Prism (GraphPad Software, San Diego, CA) to calculate IC50 values for each P450 enzyme.

CYP2C19 = biological target: T2, CYP2C19 (Homo sapiens, UniProt P33261); assay: Reversible P450 inhibition in HLM; format: biochemical; details: substrate Mephenytoin
T2 construct: phosphate buffer (100 mM, pH 7.4) containing human liver microsomes (HLM); from tissue; host or cells: human liver microsomes
T2 sequence (P33261 whole entry): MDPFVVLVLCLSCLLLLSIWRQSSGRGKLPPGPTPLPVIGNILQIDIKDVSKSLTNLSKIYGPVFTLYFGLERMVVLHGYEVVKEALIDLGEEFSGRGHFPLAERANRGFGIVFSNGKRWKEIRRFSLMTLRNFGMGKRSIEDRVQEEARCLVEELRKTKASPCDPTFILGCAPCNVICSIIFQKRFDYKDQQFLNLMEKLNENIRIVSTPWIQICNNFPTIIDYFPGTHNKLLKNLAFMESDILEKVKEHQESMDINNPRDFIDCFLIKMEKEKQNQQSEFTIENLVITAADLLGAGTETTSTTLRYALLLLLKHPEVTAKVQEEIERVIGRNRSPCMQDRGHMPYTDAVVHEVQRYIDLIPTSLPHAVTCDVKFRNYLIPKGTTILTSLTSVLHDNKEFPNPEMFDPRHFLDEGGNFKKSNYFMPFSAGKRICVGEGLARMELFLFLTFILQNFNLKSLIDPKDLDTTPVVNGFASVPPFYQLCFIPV
Experimental: as §1

CYP2C8 = biological target: T3, CYP2C8 (Homo sapiens, UniProt P10632); assay: Reversible P450 inhibition in HLM; format: biochemical; details: human liver microsomes, pH 7.4, probe paclitaxel, substrate Paclitaxel
T3 construct: phosphate buffer (100 mM, pH 7.4) containing human liver microsomes (HLM); from tissue; host or cells: human liver microsomes
T3 sequence (P10632 1-490): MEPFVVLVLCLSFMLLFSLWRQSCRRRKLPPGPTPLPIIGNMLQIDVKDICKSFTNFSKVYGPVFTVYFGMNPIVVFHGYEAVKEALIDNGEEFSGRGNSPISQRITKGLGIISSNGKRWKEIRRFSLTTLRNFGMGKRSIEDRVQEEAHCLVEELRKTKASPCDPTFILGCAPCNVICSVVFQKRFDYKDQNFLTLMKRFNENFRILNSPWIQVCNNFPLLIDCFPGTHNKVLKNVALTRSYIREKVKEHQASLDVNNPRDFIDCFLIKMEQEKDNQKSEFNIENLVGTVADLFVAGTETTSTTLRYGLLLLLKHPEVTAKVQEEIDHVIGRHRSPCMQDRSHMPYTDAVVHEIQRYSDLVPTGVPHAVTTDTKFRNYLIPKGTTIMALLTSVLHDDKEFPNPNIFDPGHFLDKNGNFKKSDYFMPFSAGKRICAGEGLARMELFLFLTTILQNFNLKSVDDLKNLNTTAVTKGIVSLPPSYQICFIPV
Experimental: as §1

CYP2C9 = biological target: T4, CYP2C9 (Homo sapiens, UniProt P11712); assay: Reversible P450 inhibition in HLM; format: biochemical; details: human liver microsomes, pH 7.4, probe S-(-)-warfarin
T4 construct: phosphate buffer (100 mM, pH 7.4) containing human liver microsomes (HLM); from tissue; host or cells: human liver microsomes
T4 sequence (P11712 whole entry): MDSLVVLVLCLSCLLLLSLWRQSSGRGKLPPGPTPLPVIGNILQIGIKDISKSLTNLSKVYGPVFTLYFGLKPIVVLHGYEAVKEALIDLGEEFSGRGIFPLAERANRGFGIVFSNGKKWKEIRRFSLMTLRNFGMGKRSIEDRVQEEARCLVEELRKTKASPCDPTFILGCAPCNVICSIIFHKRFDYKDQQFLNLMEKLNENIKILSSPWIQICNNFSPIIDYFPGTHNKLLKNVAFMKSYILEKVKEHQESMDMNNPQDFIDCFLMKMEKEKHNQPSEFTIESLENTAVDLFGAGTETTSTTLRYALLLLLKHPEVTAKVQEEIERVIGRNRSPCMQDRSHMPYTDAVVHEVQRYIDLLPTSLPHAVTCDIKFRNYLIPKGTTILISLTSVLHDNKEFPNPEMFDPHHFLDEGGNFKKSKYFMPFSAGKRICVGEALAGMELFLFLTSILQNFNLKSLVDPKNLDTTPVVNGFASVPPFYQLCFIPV
Experimental: as §1

CYP2D6 = biological target: T5, CYP2D6 (Homo sapiens, UniProt P10635); assay: Reversible P450 inhibition in HLM; format: biochemical; details: human liver microsomes, pH 7.4, probe dextromethorphan, substrate Dextromethorphan
T5 construct: phosphate buffer (100 mM, pH 7.4) containing human liver microsomes (HLM); from tissue; host or cells: human liver microsomes
T5 sequence (P10635 whole entry): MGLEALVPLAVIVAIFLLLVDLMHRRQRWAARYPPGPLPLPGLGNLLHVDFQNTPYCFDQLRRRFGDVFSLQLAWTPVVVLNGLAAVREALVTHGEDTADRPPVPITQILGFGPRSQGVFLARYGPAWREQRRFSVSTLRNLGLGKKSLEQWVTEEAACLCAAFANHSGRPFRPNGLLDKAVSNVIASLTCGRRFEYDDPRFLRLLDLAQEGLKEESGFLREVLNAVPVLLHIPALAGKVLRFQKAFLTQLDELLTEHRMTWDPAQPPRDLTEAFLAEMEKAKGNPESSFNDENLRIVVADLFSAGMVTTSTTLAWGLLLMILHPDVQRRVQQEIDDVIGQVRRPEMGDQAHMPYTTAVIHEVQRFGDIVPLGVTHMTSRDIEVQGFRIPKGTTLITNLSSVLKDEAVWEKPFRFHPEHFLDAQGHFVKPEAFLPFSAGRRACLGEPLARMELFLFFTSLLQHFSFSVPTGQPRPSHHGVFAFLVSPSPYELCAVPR
Experimental: as §1

[1] = Metabolite profiling in rat bile, urine and feces (radio-HPLC, LC-HRMS); format: in vivo; details: in vivo, iv, 4 mg/kg
Experimental: Tissue homogenate samples at 24 hours were extracted as plasma samples. […] The pooled urine samples containing 10% MeOH were analyzed by liquid chromatography-high resolution mass spectrometry (LC-HRMS).
The pooled bile sample containing 10% MeOH was analyzed by LC-HRMS.
Feces samples obtained from BDC and intact rats were pooled separately across time intervals for each animal (5% w/v) and further pooled across animals for each group to generate a 0–68 hour pooled sample. Approximately 1–2 g of each pooled feces sample was extracted as the same protocol used for plasma samples. […] The reconstituted samples were analyzed by LC-HRMS.
The reconstituted samples were analyzed by LC-HRMS, with eluent fractions collected at 10-second intervals into 96-well plates containing solid scintillant. Radioactivity in each well was determined using TopCount analysis, and radiochemical profiles were generated based on radioactivity counts. Structural elucidation was performed based on mass spectral interpretation to identify metabolites.
For metabolite profiling and identification, LC-MS analysis used a Shimadzu/Nexera LC-30 AD liquid chromatographic system and a ThermoFisher Scientific Q Exactive with a positive/negative heated electrospray interface. The column was a Waters XSelect HSS T3 4.6 mm × 250 mm, 3.5 µm and maintained at 40 °C. The mobile phases were (A) 20 mM ammonium acetate in water and (B) acetonitrile. […] The flow was 1 mL/min and split 20% to mass analysis and 80% collected for radioactivity counting. Mass spectrometry data was acquired with full scans at a resolution of 70,000 for a m/z range of 300 to 1500, and MS/MS scans were acquired at a resolution of 17,500. The mass spectrometer was operated with a normalized collision energy of 30 (ESI+), S-Lens RF level of 60, source voltage of +3.5 kV, Capillary temperature of 320 °C, and Probe heater temperature of 300 °C.

| Structure (SMILES) | IC50 (CYP1A2) [µM] | IC50 (CYP2C19; human, human liver microsomes, pH 7.4, probe S-(+)-mephenytoin) [µM] | IC50 (CYP2C19) [µM] | IC50 (CYP2C8) [µM] | IC50 (CYP2C9) [µM] | IC50 (CYP2D6) [µM] | %Rad in bile [1] [%] | %rad in feces [1] [%] | %rad in urine [1] [%] |
| --- | --- | --- | --- | --- | --- | --- | --- | --- | --- |
| Cc1ncsc1-c1ccc(C(C)NC(=O)C2CC(O)CN2C(=O)C(c2cc(N3CCC(CN4CCC(OC5CC(Oc6cc(N7C8CCC7CN(c7cc(-c9ccccc9O)nnc7N)C8)ccn6)C5)CC4)CC3)no2)C(C)C)cc1 (stereo not drawn) [A947] | > 10 | 3 | ~3 | > 10 | > 10 | > 10 |  |  |  |
| Cc1ncsc1-c1ccc(C(C)NC(=O)C2CC(O)CN2C(=O)C(c2cc(N3CCC(CN4CCC(OC5CC(Oc6cc(N7C8CCC7CN(c7cc(-[14c]9[14cH][14cH][14cH][14cH][14c]9O)nnc7N)C8)ccn6)C5)CC4)CC3)no2)C(C)C)cc1 (stereo not drawn) [14C-A947] |  |  |  |  |  |  | 23.11 | 18.95 | 20.6 |
